Measurements: ChEMBL document CHEMBL3045741, “Antithyroid agents and QSAR studies: inhibition of lactoperoxidase-catalyzed iodination reaction by isochromene-1-thiones” (Med Chem Res, 2013)
The source made the active and inactive calls. No cut-off for these calls is given here.

Legend:
Lactoperoxidase = Lactoperoxidase (Bos taurus, UniProt P80025); test: Inhibition of Bos taurus (bovine) milk lactoperoxidase-catalyzed iodination of L-tyrosine substrate by reverse phase HPLC analysis
[1] = target: Lactoperoxidase (Bos taurus) (UniProt P80025); test: Non-competitive inhibition of Bos taurus (bovine) milk lactoperoxidase using varying concentration of L-tyrosine and fixed concentration of H2O2 as substrate by Lineweaver-burk plot analysis
[2] = target: Lactoperoxidase (Bos taurus) (UniProt P80025); test: Non-competitive inhibition of Bos taurus (bovine) milk lactoperoxidase using fixed concentration of L-tyrosine and varying concentration of H2O2 as substrate by Lineweaver-burk plot analysis
[3] = target: Lactoperoxidase (Bos taurus) (UniProt P80025); test: Irreversible inhibition of Bos taurus (bovine) milk lactoperoxidase using L-tyrosine as substrate at 30 uM in presence of 0.08 to 0.8 mM H2O2 by reverse phase HPLC analysis

| Compound | IC50 (Lactoperoxidase) [µM] | further results |
| --- | --- | --- |
| S=c1oc(-c2cccs2)cc2ccccc12 | 14.3 | – |
| Cc1ccc(-c2cc3ccccc3c(=S)o2)cc1 | 6.2 | inhibition [1]: Active; inhibition [2]: Active |
| COc1ccc(-c2cc3ccccc3c(=S)o2)cc1 | 8.4 | inhibition [3]: Active |
| O=c1oc(-c2ccccc2)cc2ccccc12 | > 200 | – |
| COc1ccc(-c2cc3ccccc3c(=O)o2)cc1 | > 200 | – |
| S=c1oc(-c2cccc3ccccc23)cc2ccccc12 | 5.1 | inhibition [3]: Active; inhibition [1]: Active; inhibition [2]: Active |
| S=c1oc(-c2ccoc2)cc2ccccc12 | 26.5 | – |
| CCCCc1cc2ccccc2c(=S)o1 | 17.4 | – |
| O=c1oc(-c2ccco2)cc2ccccc12 | > 200 | – |
| S=c1oc(-c2ccccc2)cc2ccccc12 | 13.9 | – |
| O=c1oc(-c2ccc(Cl)cc2)cc2ccccc12 | 105 | – |
| Cn1cc[nH]c1=S [METHIMAZOLE] | 8.4 | – |

More lines, in order of falling IC50 (Lactoperoxidase), values ahead:

| IC50 (Lactoperoxidase) [µM] | Compound | further results |
| --- | --- | --- |
| 93.8 | Cc1ccc(-c2cc3ccccc3c(=O)o2)cc1 | – |
| 34.6 | O=c1oc(-c2cccc3ccccc23)cc2ccccc12 | – |
| 26.4 | S=c1oc(-c2ccc(Cl)cc2)cc2ccccc12 | – |
| 21.9 | CC(C)(C)c1cc2ccccc2c(=S)o1 | – |
| 17.8 | S=c1oc(-c2ccco2)cc2ccccc12 | – |
| 5.5 | S=c1oc(C2CCCCC2)cc2ccccc12 | – |
